molecular target: T1, APJ Receptor (Homo sapiens, UniProt P35414); assay: APJ cAMP assay (DiscoverX enzyme fragment complementation; inhibition of forskolin-stimulated cAMP); type: cell-based; settings: CHO-K1 cell line stably expressing the APJ Receptor; EC80 forskolin; 30 minutes at 37° C.; read-out: Potency Range (APJ cAMP EC50)
T1 sequence (P35414 1-380): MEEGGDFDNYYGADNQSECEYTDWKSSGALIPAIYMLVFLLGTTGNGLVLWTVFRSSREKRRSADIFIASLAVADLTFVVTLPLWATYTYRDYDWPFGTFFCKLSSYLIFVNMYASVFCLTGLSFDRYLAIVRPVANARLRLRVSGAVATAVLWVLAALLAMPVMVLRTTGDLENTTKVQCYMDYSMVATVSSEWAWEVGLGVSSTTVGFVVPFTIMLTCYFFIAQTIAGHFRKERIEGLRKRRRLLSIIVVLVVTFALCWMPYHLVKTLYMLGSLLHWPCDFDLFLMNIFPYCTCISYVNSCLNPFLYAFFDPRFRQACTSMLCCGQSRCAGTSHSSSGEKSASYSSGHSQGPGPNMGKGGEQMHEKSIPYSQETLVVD
From the text: Activation of APJ receptor is known to inhibit forskolin-stimulated cyclic AMP (cAMP) production in cells in a pertussis toxin-sensitive manner which indicates primary coupling to the GαI subunit of the G protein heterotrimeric complex. In addition to signaling through G protein and inhibition of cAMP, APJ receptor activation also results in β-arrestin recruitment, receptor internalization and activation of extracellular-regulated kinases (ERKs).
In order to optimize functional activity directed toward Gi coupling we utilized a CHO-K 1 cell line developed by DiscoverX stably expressing the APJ Receptor. Cells expressing APJR receptor were plated in a 384-well microtiter plates and incubated overnight at 37° C. with 5% CO2 to allow the cells to attach and grow. Media was then aspirated from the cells and replaced with 15 uL 2:1 Hanks Balanced Salt Solution (HBSS)/10 mM Hepes:cAMP XS+Ab reagent. Five microliters (5 uL) of previously generated compound sample stocks at 4× final concentration in assay buffer containing 4× EC80 forskolin were then added to the cells and allowed to incubate at 37° C. for 30 minutes.
After incubation the assay signal was generated using a technology termed enzyme fragment complementation (EFC). In EFC the enzyme B-galactosidase is split into two complementary portions (EA and ED). The fragment ED is fused to cAMP and in the assay format competes with endogenous cAMP for binding to a cAMP specific antibody. Activated B-Gal is formed when exogenous EA fragment binds to free ED-cAMP (not bound to cAMP specific antibody). Activated enzyme levels are detected through conversion of B-gal chemiluminescent substrate which generates a detectable luminescence signal and read on standard microtiter plate.
The methodology for detection of cAMP using EFC requires incubation with 20 uL of cAMP XS+ED/CL lysis cocktail for one hour followed by incubation with 20 uL cAMP XS+EA reagent for three hours at room temperature. Microplates were read following signal generation with a PerkinElmer Envision instrument utilizing chemiluminescent signal detection.
Compound activity was analyzed using CBIS data analysis suite (ChemInnovation, CA). Percentage activity was calculated using the following formula: % Activity=100%×(1−(mean RLU of test sample−mean RLU of Max control)/(mean RLU of vehicle control−mean RLU of Max control))

SMILES	EC50 [nM]
COc1cccc(-c2nc3ncc(NS(=O)(=O)c4ncccn4)nc3n2-c2c(OC)cccc2OC)n1 [Example 53, N-(1-(2,6-dimethoxyphenyl)-2-(6-methoxypyridin-2-yl)-1H-imidazo[4,5-b]pyrazin-6-yl)pyrimidine-2-sulfonamide]	1 to 100
CCOc1cccc(-c2cc3ncc(NS(C)(=O)=O)nc3n2-c2c(OC)cccc2OC)n1 [Example 19, N-(5-(2,6-dimethoxyphenyl)-6-(6-ethoxypyridin-2-yl)-5H-pyrrolo[2,3-b]pyrazin-3-yl)methanesulfonamide]	100 to 10000
CCOc1cccc(-c2nc3nc(Cl)c(NS(=O)(=O)Cc4ncc(C)cn4)nc3n2-c2c(OC)cccc2OC)n1 [Example 142, N-(5-Chloro-1-(2,6-dimethoxyphenyl)-2-(6-ethoxypyridin-2-yl)-1H-imidazo[4,5-b]pyrazin-6-yl)-1-(5-methylpyrimidin-2-yl)methanesulfonamide]	< 1
CCOc1cccc(-c2nc3nc(Cl)c(NS(=O)(=O)Cc4cccc(F)c4)nc3n2-c2c(OC)cccc2OC)n1 [Example 143, N-(5-Chloro-1-(2,6-dimethoxyphenyl)-2-(6-ethoxypyridin-2-yl)-1H-imidazo[4,5-b]pyrazin-6-yl)-1-(3-fluorophenyl)methanesulfonamide]	1 to 100
CCOc1cccc(-c2nc3nnc(NS(=O)(=O)C4CC4)cc3n2-c2c(OC)cccc2OC)n1 [Example 119, N-(7-(2,6-Dimethoxyphenyl)-8-(6-ethoxypyridin-2-yl)-7H-imidazo[4,5-c]pyridazinyl)cyclopropanesulfonamide]	1 to 100
CCOc1cccc(-c2nc3ncc(NS(C)(=O)=O)nc3n2-c2ncccc2OC)n1 [Example 49, N-(2-(6-ethoxypyridin-2-yl)-1-(3-methoxypyridin-2-yl)-1H-imidazo[4,5-b]pyrazin-6-yl)methanesulfonamide]	100 to 10000
CCOc1cccc(-c2nc3nc(NS(C)(=O)=O)cnc3n2-c2c(OC)cccc2OC)n1 [Example 43, N-(1-(2,6-dimethoxyphenyl)-2-(6-ethoxypyridin-2-yl)-1H-imidazo[4,5-b]pyrazin-5-yl)methanesulfonamide]	1 to 100
CCOc1cccc(-c2nc3ncc(N(Cc4ccccc4)Cc4ccccc4)nc3n2-c2c(OC)cccc2OC)n1 [Example 11, N,N-dibenzyl-1-(2,6-dimethoxyphenyl)-2-(6-ethoxypyridin-2-yl)-1H-imidazo[4,5-b]pyrazin-6-amine]	1 to 100
CCOc1cccc(-c2nc3ncc(NS(C)(=O)=O)nc3n2-c2c(OC)cccc2OC)n1 [Example 2, N-(1-(2,6-dimethoxyphenyl)-2-(6-ethoxypyridin-2-yl)-1H-imidazo[4,5-b]pyrazin-6-yl)methanesulfonamide]	1 to 100
CCOc1cccc(-c2nc3nnc(NS(=O)(=O)Cc4ccc(F)cn4)cc3n2-c2c(OC)cccc2OC)n1 [Example 125, N-(7-(2,6-Dimethoxyphenyl)-8-(6-ethoxypyridin-2-yl)-7H-imidazo[4,5-c]pyridazinyl)-1-(5-fluoropyridin-2-yl)methanesulfonamide]	< 1
CCOc1cccc(-c2nc3nnc(NS(C)(=O)=O)c(C)c3n2-c2c(OC)cccc2OC)n1 [Example 139, N-(7-(2,6-Dimethoxyphenyl)-8-(6-ethoxypyridin-2-yl)-6-methyl-7H-imidazo[4,5-c]pyridazinyl)methanesulfonamide]	1 to 100
CCOc1cccc(-c2nc3ncc(NC)nc3n2-c2c(OC)cccc2OC)n1 [Example 9, 1-(2,6-dimethoxyphenyl)-2-(6-ethoxypyridin-2-yl)-N-methyl-1H-imidazo[4,5-b]pyrazin-6-amine]	1 to 100
CCOc1cccc(-c2nc3ncc(NS(=O)(=O)Cc4ccc(F)cn4)nc3n2-c2c(OC)cccc2OC)n1 [Example 78, N-(1-(2,6-dimethoxyphenyl)-2-(6-ethoxypyridin-2-yl)-1H-imidazo[4,5-b]pyrazin-6-yl)-1-(5-fluoropyridin-2-yl)methanesulfonamide]	< 1
CCOc1cccc(-c2nc3ncc(NS(=O)(=O)Cc4ccc(C)cn4)nc3n2-c2c(OC)cccc2OC)n1 [Example 83, N-(1-(2,6-Dimethoxyphenyl)-2-(6-ethoxypyridin-2-yl)-1H-imidazo[4,5-b]pyrazin-6-yl)-1-(5-methylpyridin-2-yl)methanesulfonamide]	< 1
COc1cccc(OC)c1-n1c(-c2cncc(C)c2)nc2ncc(NS(C)(=O)=O)nc21 [Example 132, N-(1-(2,6-dimethoxyphenyl)-2-(5-methylpyridin-3-yl)-1H-imidazo[4,5-b]pyrazin-6-yl)methanesulfonamide]	100 to 10000
CCOc1cccc(-c2nc3nc(NS(=O)(=O)Cc4ncc(C)cn4)cnc3n2-c2c(OC)cccc2OC)n1 [Example 91, N-(1-(2,6-Dimethoxyphenyl)-2-(6-ethoxypyridin-2-yl)-1H-imidazo[4,5-b]pyrazin-5-yl)-1-(5-methylpyrimidin-2-yl)methanesulfonamide]	< 1
CCOc1cccc(-c2nc3nc(Cl)c(NS(=O)(=O)Cc4ncccn4)nc3n2-c2c(OC)cccc2OC)n1 [Example 109, N-(5-Chloro-1-(2,6-dimethoxyphenyl)-2-(6-ethoxypyridin-2-yl)-1H-imidazo[4,5-b]pyrazin-6-yl)-1-(pyrimidin-2-yl)methanesulfonamide]	1 to 100

More lines, now with the values ahead:

EC50 [nM]	SMILES
1 to 100	CCOc1cccc(-c2nc3ccc(NS(C)(=O)=O)nc3n2-c2c(OC)cccc2OC)n1 [Example 63, N-(3-(2,6-dimethoxyphenyl)-2-(6-ethoxypyridin-2-yl)-3H-imidazo[4,5-b]pyridin-5-yl)methanesulfonamide]
100 to 10000	CCOc1cccc(-c2nc3ncc(N(C)C)nc3n2-c2c(OC)cccc2OC)n1 [Example 12, 1-(2,6-dimethoxyphenyl)-2-(6-ethoxypyridin-2-yl)-N,N-dimethyl-1H-imidazo[4,5-b]pyrazin-6-amine]
< 1	CCOc1cccc(-c2nc3nnc(NS(=O)(=O)Cc4ncc(C)cn4)cc3n2-c2c(OC)cccc2OC)n1 [Example 126, N-(7-(2,6-Dimethoxyphenyl)-8-(6-ethoxypyridin-2-yl)-7H-imidazo[4,5-c]pyridazinyl)-1-(5-methylpyrimidin-2-yl)methanesulfonamide]
1 to 100	CCOc1cccc(-c2nc3nc(Cl)c(NS(=O)(=O)c4ccc(F)cn4)nc3n2-c2c(OC)cccc2OC)n1 [Example 99, N-(5-Chloro-1-(2,6-dimethoxyphenyl)-2-(6-ethoxypyridin-2-yl)-1H-imidazo[4,5-b]pyrazin-6-yl)-5-fluoropyridine-2-sulfonamide]
1 to 100	CCOc1cccc(-c2nc3ncc(NS(C)(=O)=O)nc3n2-c2c(F)cccc2OC)n1 [Example 50]
< 1	CCOc1cccc(-c2nc3ncc(NS(=O)(=O)C[C@@H]4CCN(C)C(=O)C4)nc3n2-c2c(OC)cccc2OC)n1 [Example 72, (R)—N-(1-(2,6-dimethoxyphenyl)-2-(6-ethoxypyridin-2-yl)-1H-imidazo[4,5-b]pyrazin-6-yl)-1-(1-methyl-2-oxopiperidin-4-yl)methanesulfonamide]
100 to 10000	CCOc1cccc(-c2nc3ncc(O)nc3n2-c2c(OC)cccc2C(F)(F)F)n1 [Example 47, 2-(6-ethoxypyridin-2-yl)-1-(2-methoxy-6-(trifluoromethyl)phenyl)-1H-imidazo[4,5-b]pyrazin-6-ol]
1 to 100	CCOc1cccc(-c2nc3nc(Cl)c(NS(C)(=O)=O)nc3n2-c2c(OC)cncc2OC)n1 [Example 117, N-(5-Chloro-1-(3,5-dimethoxypyridin-4-yl)-2-(6-ethoxypyridin-2-yl)-1H-imidazo[4,5-b]pyrazin-6-yl)methanesulfonamide]
1 to 100	CCOc1cccc(-c2nc3ncc(NS(=O)(=O)N(C)C)nc3n2-c2c(OC)cccc2OC)n1 [Example 76, N-(1-(2,6-dimethoxyphenyl)-2-(6-ethoxypyridin-2-yl)-1H-imidazo[4,5-b]pyrazin-6-yl)-N′,N′-dimethylsulfamide]
< 1	CCOc1cccc(-c2nc3ncc(NS(=O)(=O)Cc4ncccn4)nc3n2-c2c(OC)cccc2OC)n1 [Example 28, N-(1-(2,6-dimethoxyphenyl)-2-(6-ethoxypyridin-2-yl)-1H-imidazo[4,5-b]pyrazin-6-yl)-1-(pyrimidin-2-yl)methanesulfonamide]
